Reference: the kinase profiling compilation of Christmann-Franck et al. (2016)

Tests used:
Test in all cases: radiometric filter-binding kinase assay, Kinase HotSpot
Settings in all cases: compound 0.5 µM; ATP 10 µM
PKN2 (human) = PKN2 (human) (UniProt Q16513)
ERBB4 (human) = ERBB4 (human) (UniProt Q15303)
MAP2K1 (human) = MAP2K1 (human) (UniProt Q02750)
DYRK3 (human) = DYRK3 (human) (UniProt O43781)
NTRK3 (human) = NTRK3 (human) (UniProt Q16288)
TGFBR2 (human) = TGFBR2 (human) (UniProt P37173)
MAP3K11 (human) = MAP3K11 (human) (UniProt Q16584)
ALK (human) = ALK (human) (UniProt Q9UM73)
ZAP70 (human) = ZAP70 (human) (UniProt P43403)
CHUK (human) = CHUK (human) (UniProt O15111)
PDGFRB (human) = PDGFRB (human) (UniProt P09619)
EPHB3 (human) = EPHB3 (human) (UniProt P54753)
Sequence of EPHB3 (human) (P54753 whole entry, looked up): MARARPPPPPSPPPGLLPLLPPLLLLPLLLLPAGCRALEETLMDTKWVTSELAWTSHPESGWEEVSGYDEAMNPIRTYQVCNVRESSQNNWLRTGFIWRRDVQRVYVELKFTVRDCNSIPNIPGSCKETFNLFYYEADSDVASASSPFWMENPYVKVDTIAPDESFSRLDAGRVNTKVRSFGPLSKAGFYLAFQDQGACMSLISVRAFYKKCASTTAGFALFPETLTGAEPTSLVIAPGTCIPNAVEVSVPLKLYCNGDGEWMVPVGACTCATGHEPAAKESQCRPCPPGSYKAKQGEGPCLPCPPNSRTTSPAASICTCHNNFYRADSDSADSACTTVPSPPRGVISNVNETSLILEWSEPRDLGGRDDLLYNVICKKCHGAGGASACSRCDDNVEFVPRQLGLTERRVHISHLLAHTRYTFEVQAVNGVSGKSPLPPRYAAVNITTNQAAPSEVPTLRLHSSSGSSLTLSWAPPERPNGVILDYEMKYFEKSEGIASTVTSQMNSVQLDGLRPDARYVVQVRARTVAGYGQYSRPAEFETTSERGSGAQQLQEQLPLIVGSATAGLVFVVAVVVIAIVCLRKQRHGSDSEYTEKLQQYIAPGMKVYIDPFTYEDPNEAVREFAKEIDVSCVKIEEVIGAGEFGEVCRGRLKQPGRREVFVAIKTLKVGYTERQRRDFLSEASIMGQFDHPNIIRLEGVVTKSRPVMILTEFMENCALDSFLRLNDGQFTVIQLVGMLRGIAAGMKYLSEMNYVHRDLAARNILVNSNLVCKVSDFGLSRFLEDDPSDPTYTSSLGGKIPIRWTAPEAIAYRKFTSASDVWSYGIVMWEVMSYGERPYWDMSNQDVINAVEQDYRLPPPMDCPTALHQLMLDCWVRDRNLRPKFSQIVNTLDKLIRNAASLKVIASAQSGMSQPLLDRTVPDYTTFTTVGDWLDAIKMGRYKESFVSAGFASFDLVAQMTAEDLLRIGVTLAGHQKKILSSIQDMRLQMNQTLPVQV

GRK7 (human) = GRK7 (human) (UniProt Q8WTQ7)
MINK1 (human) = MINK1 (human) (UniProt Q8N4C8)
NEK1 (human) = NEK1 (human) (UniProt Q96PY6)
MAP3K3 (human) = MAP3K3 (human) (UniProt Q99759)
MAPK13 (human) = MAPK13 (human) (UniProt O15264)
ROS1 (human) = ROS1 (human) (UniProt P08922)
SIK2 (human) = SIK2 (human) (UniProt Q9H0K1)
CLK3 (human) = CLK3 (human) (UniProt P49761)
Sequence of CLK3 (human) (P49761 whole entry, looked up): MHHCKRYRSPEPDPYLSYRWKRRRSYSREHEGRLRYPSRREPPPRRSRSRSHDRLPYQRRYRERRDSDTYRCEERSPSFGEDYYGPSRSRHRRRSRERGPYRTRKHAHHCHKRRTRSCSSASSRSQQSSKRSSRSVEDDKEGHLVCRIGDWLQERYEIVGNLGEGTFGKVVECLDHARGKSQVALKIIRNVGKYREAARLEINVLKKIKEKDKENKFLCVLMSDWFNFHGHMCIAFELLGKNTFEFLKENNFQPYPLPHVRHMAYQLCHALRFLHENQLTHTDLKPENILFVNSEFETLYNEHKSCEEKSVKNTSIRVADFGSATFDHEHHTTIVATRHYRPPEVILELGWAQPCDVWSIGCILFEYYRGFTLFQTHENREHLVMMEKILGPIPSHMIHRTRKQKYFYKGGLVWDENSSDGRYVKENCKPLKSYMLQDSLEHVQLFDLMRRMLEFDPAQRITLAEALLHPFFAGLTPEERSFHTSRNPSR

ACVR1B (human) = ACVR1B (human) (UniProt P36896)
CSNK1G2 (human) = CSNK1G2 (human) (UniProt P78368)
PRKCE (human) = PRKCE (human) (UniProt Q02156)
CDK3 CCNE1 (human) = CDK3 CCNE1 (human) (UniProt Q00526+P24864)
Sequence of CDK3 CCNE1 (human) (P24864 whole entry, looked up): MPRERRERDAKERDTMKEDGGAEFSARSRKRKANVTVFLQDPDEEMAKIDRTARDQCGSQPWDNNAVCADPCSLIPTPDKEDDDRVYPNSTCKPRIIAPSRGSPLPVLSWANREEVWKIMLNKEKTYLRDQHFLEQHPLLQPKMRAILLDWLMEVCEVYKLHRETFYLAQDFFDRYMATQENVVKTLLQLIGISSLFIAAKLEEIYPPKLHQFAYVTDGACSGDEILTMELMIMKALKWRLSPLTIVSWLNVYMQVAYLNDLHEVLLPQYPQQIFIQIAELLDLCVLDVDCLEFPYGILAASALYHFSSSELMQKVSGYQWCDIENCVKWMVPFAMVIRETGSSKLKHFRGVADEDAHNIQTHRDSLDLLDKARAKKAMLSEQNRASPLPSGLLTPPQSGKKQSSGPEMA
Sequence of CDK3 CCNE1 (human) (Q00526 whole entry, looked up): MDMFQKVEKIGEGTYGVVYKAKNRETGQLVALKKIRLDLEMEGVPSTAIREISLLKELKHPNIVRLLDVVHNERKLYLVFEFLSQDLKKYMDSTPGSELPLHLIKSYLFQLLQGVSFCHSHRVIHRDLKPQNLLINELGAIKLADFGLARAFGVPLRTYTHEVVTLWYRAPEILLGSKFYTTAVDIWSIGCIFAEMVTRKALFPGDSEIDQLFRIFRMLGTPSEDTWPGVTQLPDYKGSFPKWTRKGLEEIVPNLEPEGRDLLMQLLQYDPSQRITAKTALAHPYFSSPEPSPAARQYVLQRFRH

MAP3K8 (human) = MAP3K8 (human) (UniProt P41279)
RET (human) = RET (human) (UniProt P07949)
PAK3 (human) = PAK3 (human) (UniProt O75914)
HIPK4 (human) = HIPK4 (human) (UniProt Q8NE63)
KIT (human) = KIT (human) (UniProt P10721)
ACVR1 (human) = ACVR1 (human) (UniProt Q04771)
[1] = target: TYK2 JH1 catalytic (human) (UniProt P29597)
FER (human) = FER (human) (UniProt P16591)
MARK1 (human) = MARK1 (human) (UniProt Q9P0L2)
CLK2 (human) = CLK2 (human) (UniProt P49760)
RPS6KA3 KD1 KD2 (human) = RPS6KA3 KD1 KD2 (human) (UniProt P51812)
PDGFRA (human) = PDGFRA (human) (UniProt P16234)
CLK1 (human) = CLK1 (human) (UniProt P49759)
NLK (human) = NLK (human) (UniProt Q9UBE8)
TTK (human) = TTK (human) (UniProt P33981)
MAP4K2 (human) = MAP4K2 (human) (UniProt Q12851)
[2] = target: JAK1 JH1 catalytic (human) (UniProt P23458)
Sequence of JAK1 JH1 catalytic (human) (P23458 whole entry, looked up): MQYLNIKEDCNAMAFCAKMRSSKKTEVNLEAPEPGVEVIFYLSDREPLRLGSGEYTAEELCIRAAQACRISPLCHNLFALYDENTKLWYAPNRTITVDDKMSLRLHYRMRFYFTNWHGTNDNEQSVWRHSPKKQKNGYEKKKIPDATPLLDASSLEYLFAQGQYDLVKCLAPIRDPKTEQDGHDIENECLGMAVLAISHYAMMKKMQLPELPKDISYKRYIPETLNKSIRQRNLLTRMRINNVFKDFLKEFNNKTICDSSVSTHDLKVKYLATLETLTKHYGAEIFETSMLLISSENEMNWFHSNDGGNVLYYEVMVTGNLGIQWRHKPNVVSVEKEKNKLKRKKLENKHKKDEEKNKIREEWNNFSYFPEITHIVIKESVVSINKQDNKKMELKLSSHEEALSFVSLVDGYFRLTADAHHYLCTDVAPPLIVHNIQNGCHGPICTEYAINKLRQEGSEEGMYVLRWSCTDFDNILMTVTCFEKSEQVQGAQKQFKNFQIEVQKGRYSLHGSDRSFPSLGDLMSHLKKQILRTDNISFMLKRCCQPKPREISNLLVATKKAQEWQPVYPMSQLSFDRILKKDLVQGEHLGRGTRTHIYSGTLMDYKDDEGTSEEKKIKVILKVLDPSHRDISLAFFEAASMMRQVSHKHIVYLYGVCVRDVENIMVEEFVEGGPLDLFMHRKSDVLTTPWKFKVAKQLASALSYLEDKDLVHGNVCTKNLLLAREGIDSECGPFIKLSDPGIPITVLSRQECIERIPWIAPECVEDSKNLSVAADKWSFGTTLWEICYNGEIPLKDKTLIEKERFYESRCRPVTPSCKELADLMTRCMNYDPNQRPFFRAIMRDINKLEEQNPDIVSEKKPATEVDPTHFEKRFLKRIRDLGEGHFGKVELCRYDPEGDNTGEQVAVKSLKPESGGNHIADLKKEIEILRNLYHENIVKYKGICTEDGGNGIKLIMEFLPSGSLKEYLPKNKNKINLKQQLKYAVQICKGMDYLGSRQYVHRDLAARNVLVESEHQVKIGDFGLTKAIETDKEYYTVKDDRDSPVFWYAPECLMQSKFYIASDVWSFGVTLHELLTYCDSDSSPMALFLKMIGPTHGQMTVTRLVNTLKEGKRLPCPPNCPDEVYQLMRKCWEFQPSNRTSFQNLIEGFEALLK

SLK (human) = SLK (human) (UniProt Q9H2G2)
Sequence of SLK (human) (Q9H2G2 whole entry, looked up): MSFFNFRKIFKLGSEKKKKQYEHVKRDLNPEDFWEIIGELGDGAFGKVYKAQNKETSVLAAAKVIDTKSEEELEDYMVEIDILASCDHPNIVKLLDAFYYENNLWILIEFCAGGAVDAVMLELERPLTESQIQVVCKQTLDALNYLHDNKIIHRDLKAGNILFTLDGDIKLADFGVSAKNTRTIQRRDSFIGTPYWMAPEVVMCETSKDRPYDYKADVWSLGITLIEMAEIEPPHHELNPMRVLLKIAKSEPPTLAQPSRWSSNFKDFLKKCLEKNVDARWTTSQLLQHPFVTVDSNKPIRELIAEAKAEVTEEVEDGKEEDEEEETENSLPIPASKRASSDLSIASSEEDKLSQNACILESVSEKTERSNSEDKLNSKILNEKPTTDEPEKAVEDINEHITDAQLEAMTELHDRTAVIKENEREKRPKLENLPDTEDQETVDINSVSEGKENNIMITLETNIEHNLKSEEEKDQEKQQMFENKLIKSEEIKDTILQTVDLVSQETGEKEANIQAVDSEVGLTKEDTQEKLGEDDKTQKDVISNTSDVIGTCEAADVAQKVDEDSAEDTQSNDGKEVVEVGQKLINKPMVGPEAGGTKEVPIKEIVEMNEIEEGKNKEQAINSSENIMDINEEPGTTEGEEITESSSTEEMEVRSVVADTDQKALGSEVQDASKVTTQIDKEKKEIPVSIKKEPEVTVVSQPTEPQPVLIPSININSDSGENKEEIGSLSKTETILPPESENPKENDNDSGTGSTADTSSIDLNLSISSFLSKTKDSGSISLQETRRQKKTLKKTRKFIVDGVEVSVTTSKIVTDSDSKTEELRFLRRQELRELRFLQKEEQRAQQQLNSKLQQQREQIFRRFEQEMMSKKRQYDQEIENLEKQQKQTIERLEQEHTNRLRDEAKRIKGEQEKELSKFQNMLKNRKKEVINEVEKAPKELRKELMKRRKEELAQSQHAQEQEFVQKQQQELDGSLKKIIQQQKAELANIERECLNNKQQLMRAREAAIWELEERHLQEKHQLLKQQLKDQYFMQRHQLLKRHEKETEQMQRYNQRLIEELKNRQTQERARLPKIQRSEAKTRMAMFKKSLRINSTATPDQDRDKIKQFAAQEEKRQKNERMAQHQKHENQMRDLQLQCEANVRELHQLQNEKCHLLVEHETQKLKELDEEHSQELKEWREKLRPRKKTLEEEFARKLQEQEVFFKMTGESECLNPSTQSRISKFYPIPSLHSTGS

Sequence of MAP2K1 (human) (Q02750 whole entry, looked up): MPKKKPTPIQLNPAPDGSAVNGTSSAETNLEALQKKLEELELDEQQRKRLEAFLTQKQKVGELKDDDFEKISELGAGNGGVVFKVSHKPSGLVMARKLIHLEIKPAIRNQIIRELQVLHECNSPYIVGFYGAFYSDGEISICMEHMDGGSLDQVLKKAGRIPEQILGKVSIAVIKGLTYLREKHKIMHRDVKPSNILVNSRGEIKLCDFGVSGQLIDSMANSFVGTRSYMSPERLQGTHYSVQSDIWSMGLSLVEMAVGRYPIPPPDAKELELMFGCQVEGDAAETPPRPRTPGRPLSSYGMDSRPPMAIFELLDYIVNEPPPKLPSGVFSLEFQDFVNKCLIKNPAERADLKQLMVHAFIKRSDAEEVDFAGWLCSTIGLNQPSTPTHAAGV

COc1cc2c(cc1OC)-c1[nH]nc(Nc3cccc(F)c3)c1C2
residual activity (PKN2 (human)): 92% | residual activity (ERBB4 (human)): 96.5% | residual activity (MAP2K1 (human)): 90.1% | residual activity (DYRK3 (human)): 84.4% | residual activity (NTRK3 (human)): 72.6% | residual activity (TGFBR2 (human)): 100% | residual activity (MAP3K11 (human)): 93.9% | residual activity (ALK (human)): 103% | residual activity (ZAP70 (human)): 95.3% | residual activity (CHUK (human)): 91.4% | residual activity (PDGFRB (human)): 45.3% | residual activity (EPHB3 (human)): 97.2% | residual activity (GRK7 (human)): 101% | residual activity (MINK1 (human)): 83.6% | residual activity (NEK1 (human)): 93% | residual activity (MAP3K3 (human)): 103% | residual activity (MAPK13 (human)): 99.7% | residual activity (ROS1 (human)): 97.5% | residual activity (SIK2 (human)): 38.6% | residual activity (CLK3 (human)): 96.5% | residual activity (ACVR1B (human)): 92.9% | residual activity (CSNK1G2 (human)): 89.7% | residual activity (PRKCE (human)): 87.9% | residual activity (CDK3 CCNE1 (human)): 95.4% | residual activity (MAP3K8 (human)): 99.9% | residual activity (RET (human)): 83.6% | residual activity (PAK3 (human)): 93.1% | residual activity (HIPK4 (human)): 90% | residual activity (KIT (human)): 27.9% | residual activity (ACVR1 (human)): 107% | residual activity [1]: 81.3% | residual activity (FER (human)): 94% | residual activity (MARK1 (human)): 96.1% | residual activity (CLK2 (human)): 84.3% | residual activity (RPS6KA3 KD1 KD2 (human)): 94.7% | residual activity (PDGFRA (human)): 33.4% | residual activity (CLK1 (human)): 102% | residual activity (NLK (human)): 74.1% | residual activity (TTK (human)): 84.1% | residual activity (MAP4K2 (human)): 103% | residual activity [2]: 97.6% | residual activity (SLK (human)): 95.4%

O=c1cc(N2CCOCC2)oc2c(-c3ccccc3)cccc12
residual activity (PKN2 (human)): 98.6% | residual activity (ERBB4 (human)): 102% | residual activity (MAP2K1 (human)): 88.8% | residual activity (DYRK3 (human)): 100% | residual activity (NTRK3 (human)): 95.9% | residual activity (TGFBR2 (human)): 142% | residual activity (MAP3K11 (human)): 101% | residual activity (ALK (human)): 92.4% | residual activity (ZAP70 (human)): 102% | residual activity (CHUK (human)): 104% | residual activity (PDGFRB (human)): 102% | residual activity (EPHB3 (human)): 94.6% | residual activity (GRK7 (human)): 112% | residual activity (MINK1 (human)): 94.6% | residual activity (NEK1 (human)): 86.7% | residual activity (MAP3K3 (human)): 93.4% | residual activity (MAPK13 (human)): 93.3% | residual activity (ROS1 (human)): 98.4% | residual activity (SIK2 (human)): 96.8% | residual activity (CLK3 (human)): 107% | residual activity (ACVR1B (human)): 101% | residual activity (CSNK1G2 (human)): 94.4% | residual activity (PRKCE (human)): 102% | residual activity (CDK3 CCNE1 (human)): 89.6% | residual activity (MAP3K8 (human)): 98.2% | residual activity (RET (human)): 99.2% | residual activity (PAK3 (human)): 104% | residual activity (HIPK4 (human)): 102% | residual activity (KIT (human)): 92.9% | residual activity (ACVR1 (human)): 91.2% | residual activity [1]: 103% | residual activity (FER (human)): 99.9% | residual activity (MARK1 (human)): 100% | residual activity (CLK2 (human)): 100% | residual activity (RPS6KA3 KD1 KD2 (human)): 98.1% | residual activity (PDGFRA (human)): 94.6% | residual activity (CLK1 (human)): 112% | residual activity (NLK (human)): 99.8% | residual activity (TTK (human)): 103% | residual activity (MAP4K2 (human)): 87.8% | residual activity [2]: 108% | residual activity (SLK (human)): 102%

N/C(=N\N=C/c1ccc(-c2cccc([N+](=O)[O-])c2)o1)N[N+](=O)[O-]
residual activity (PKN2 (human)): 92.6% | residual activity (ERBB4 (human)): 103% | residual activity (MAP2K1 (human)): 105% | residual activity (DYRK3 (human)): 102% | residual activity (NTRK3 (human)): 104% | residual activity (TGFBR2 (human)): 123% | residual activity (MAP3K11 (human)): 99.4% | residual activity (ALK (human)): 93.6% | residual activity (ZAP70 (human)): 93.1% | residual activity (CHUK (human)): 88.1% | residual activity (PDGFRB (human)): 129% | residual activity (EPHB3 (human)): 91.7% | residual activity (GRK7 (human)): 97% | residual activity (MINK1 (human)): 84.1% | residual activity (NEK1 (human)): 97.7% | residual activity (MAP3K3 (human)): 93.8% | residual activity (MAPK13 (human)): 101% | residual activity (ROS1 (human)): 97.5% | residual activity (SIK2 (human)): 91.6% | residual activity (CLK3 (human)): 97.7% | residual activity (ACVR1B (human)): 101% | residual activity (CSNK1G2 (human)): 101% | residual activity (PRKCE (human)): 90.5% | residual activity (CDK3 CCNE1 (human)): 85% | residual activity (MAP3K8 (human)): 98.8% | residual activity (RET (human)): 99.9% | residual activity (PAK3 (human)): 95.1% | residual activity (HIPK4 (human)): 102% | residual activity (KIT (human)): 96.4% | residual activity (ACVR1 (human)): 98% | residual activity [1]: 110% | residual activity (FER (human)): 94.7% | residual activity (MARK1 (human)): 90.7% | residual activity (CLK2 (human)): 88.3% | residual activity (RPS6KA3 KD1 KD2 (human)): 101% | residual activity (PDGFRA (human)): 93.2% | residual activity (CLK1 (human)): 105% | residual activity (NLK (human)): 103% | residual activity (TTK (human)): 95.9% | residual activity (MAP4K2 (human)): 115% | residual activity [2]: 102% | residual activity (SLK (human)): 101%
